Tests used:
Assay in all cases: relative viability (nuclei count vs DMSO), 5 days (fraction); higher = more cells survive
AT9283 + Pemetrexed = compound: O=C(Nc1c[nH]nc1-c1nc2ccc(CN3CCOCC3)cc2[nH]1)NC1CC1 [AT9283] + Nc1nc2[nH]cc(CCc3ccc(C(=O)N[C@@H](CCC(=O)O)C(=O)O)cc3)c2c(=O)[nH]1 [Pemetrexed] (partner 0.2 µM)
Summary of the method: (§1)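 Each reported value is a median over duplicate plates. It expresses relative viability: treated-well nuclei count divided by vehicle-well nuclei count. Lung cancer cell lines in 1536-well plates were dosed by pin tool a day after seeding, alone with one drug or with a fixed anchor-drug dose plus five library-drug doses (not always all listed) in √10 steps, and nuclei were counted after 5 days.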

Erlotinib + Phenformin = compound: C#Cc1cccc(Nc2ncnc3cc(OCCOC)c(OCCOC)cc23)c1 [Erlotinib] + N=C(N)NC(=N)NCCc1ccccc1 [Phenformin] (partner 250 µM)
Summary of the method: as §1

AT9283 + OSI-027 = compound: O=C(Nc1c[nH]nc1-c1nc2ccc(CN3CCOCC3)cc2[nH]1)NC1CC1 [AT9283] + COc1cccc2cc(-c3nc([C@H]4CC[C@H](C(=O)O)CC4)n4ncnc(N)c34)[nH]c12 [OSI-027] (partner 0.5 µM)
Summary of the method: as §1

AT9283 + Phenformin = compound: O=C(Nc1c[nH]nc1-c1nc2ccc(CN3CCOCC3)cc2[nH]1)NC1CC1 [AT9283] + N=C(N)NC(=N)NCCc1ccccc1 [Phenformin] (partner 250 µM)
Summary of the method: as §1

Erlotinib + Luminespib = compound: C#Cc1cccc(Nc2ncnc3cc(OCCOC)c(OCCOC)cc23)c1 [Erlotinib] + CCNC(=O)c1noc(-c2cc(C(C)C)c(O)cc2O)c1-c1ccc(CN2CCOCC2)cc1 [Luminespib] (partner 0.01 µM)
Summary of the method: as §1

Cell Line | relative viability (AT9283 + Pemetrexed; first compound 0.003 µM) | relative viability (AT9283 + Pemetrexed; first compound 0.03 µM) | relative viability (AT9283 + Pemetrexed; first compound 0.09487 µM) | relative viability (AT9283 + Pemetrexed; first compound 0.3 µM) | relative viability (Erlotinib + Phenformin; first compound 0.02 µM) | relative viability (Erlotinib + Phenformin; first compound 0.2 µM) | relative viability (Erlotinib + Phenformin; first compound 0.6325 µM) | relative viability (Erlotinib + Phenformin; first compound 2 µM) | relative viability (AT9283 + OSI-027; first compound 0.003 µM) | relative viability (AT9283 + OSI-027; first compound 0.03 µM) | relative viability (AT9283 + OSI-027; first compound 0.09487 µM) | relative viability (AT9283 + OSI-027; first compound 0.3 µM) | relative viability (AT9283 + Phenformin; first compound 0.003 µM) | relative viability (AT9283 + Phenformin; first compound 0.03 µM) | relative viability (AT9283 + Phenformin; first compound 0.09487 µM) | relative viability (AT9283 + Phenformin; first compound 0.3 µM) | relative viability (Erlotinib + Luminespib; first compound 0.02 µM) | relative viability (Erlotinib + Luminespib; first compound 0.2 µM) | relative viability (Erlotinib + Luminespib; first compound 0.6325 µM) | relative viability (Erlotinib + Luminespib; first compound 2 µM)
NCI-H596 | 0.512 | 0.574 | 0.529 | 0.462 | 0.745 | 0.698 | 0.735 | 0.688 | 0.704 | 0.779 | 0.665 | 0.476 | 0.743 | 0.82 | 0.608 | 0.564 | 1.07 | 0.848 | 0.893 | 0.878
NCI-H3122 | 0.2 | 0.191 | 0.176 | 0.123 | 0.361 | 0.388 | 0.392 | 0.377 | 0.94 | 0.645 | 0.201 | 0.115 | 0.359 | 0.334 | 0.203 | 0.138 | 0.0866 | 0.089 | 0.0884 | 0.107
NCI-H647 | 0.168 | 0.127 | 0.0669 | 0.0634 | 0.586 | 0.476 | 0.632 | 0.353 | 0.782 | 0.524 | 0.173 | 0.132 | 0.525 | 0.305 | 0.145 | 0.0997 | 0.218 | 0.119 | 0.142 | 0.0816
EMC-BAC-2 | 0.466 | 0.414 | 0.367 | 0.266 | 0.578 | 0.571 | 0.559 | 0.502 | 0.369 | 0.325 | 0.197 | 0.149 | 0.565 | 0.251 | 0.208 | 0.163 | 1.12 | 1.06 | 1.19 | 1.03
SK-LU-1 | 1.16 | 0.663 | 0.396 | 0.391 | 0.621 | 0.536 | 0.573 | 0.479 | 0.366 | 0.276 | 0.22 | 0.165 | 0.582 | 0.431 | 0.179 | 0.179 | 0.21 | 0.208 | 0.188 | 0.202
HARA | 0.217 | 0.239 | 0.167 | 0.166 | 0.44 | 0.407 | 0.444 | 0.243 | 0.612 | 0.327 | 0.073 | 0.0736 | 0.499 | 0.261 | 0.208 | 0.0751 | 0.784 | 0.417 | 0.586 | 0.255
PC-14 | 0.145 | 0.0954 | 0.0681 | 0.0563 | 0.278 | 0.171 | 0.177 | 0.139 | 0.878 | 0.745 | 0.0842 | 0.08 | 0.51 | 0.468 | 0.197 | 0.109 | 0.154 | 0.134 | 0.147 | 0.0981
SW 900 | 0.326 | 0.468 | 0.423 | 0.32 | 0.55 | 0.565 | 0.679 | 0.487 | 0.718 | 0.703 | 0.388 | 0.229 | 0.63 | 0.595 | 0.486 | 0.256 | 0.201 | 0.172 | 0.178 | 0.173

Source: the supplement of paper PMC10307832
